The subject of data set [1] is MDA-157. As to the kind of experiment: CellTiter-Glo cell viability assay, MDA-157. Particulars: Breast; for IC50: MDA-157, 72 hours. In kind it is cell-based. On the procedure: (§1) Cell Viability Assay—Cell viability was measured by the CellTiter-Glo® cell viability assay Promega (Madison, Wis.). The CellTiter-Glo® Luminescent Cell Viability Assay is a homogeneous method to determine the number of viable cells in culture based on quantitation of the ATP present, which signals the presence of metabolically active cells. Following treatment, CellTiter-Glo® is added to treatment wells and incubated at 37° C. luminescence values were measured at using a Molecular Devices Spectramax microplate reader.
(§2) Single Agent Studies—Cells were grown to 70% confluency, trypsinized, counted, and seeded in 96 well flat-bottom plates at a final concentration of 2.5×10^3-5×10^3 cells/well (Day 0). Cells were allowed to incubate in growth media for 24 hours. Treatment with the test agents began on Day 1 and continued for 72 hours. At the 72-hour time point, treatment-containing media was removed. Viable cell numbers are quantified by the CellTiter-Glo® cell viability assay as described above. Experiments were run with triplicate concentrations to determine growth inhibitory activity. Results from these studies were used to calculate an IC50 value (concentration of drug that inhibits cell growth by 50 percent of control) for each compound.
(§3) Data Collection—For single agent and combination studies, data from each experiment was collected and expressed as % Cell Growth using the following calculation: % Cell Growth=(ftest/fvehicle)×100
(§4) Where ftest is the luminescence of the tested sample, and fvehicle is the luminescence of the vehicle in which the drug is dissolved. Dose response graphs and IC50 values were generated using Prism 6 software (GraphPad).
Background: ATP-based viability assays read luminescence as a measure of living cells.

The subject of data set [2] is MDA468. The experiment in a line: CellTiter-Glo cell viability assay, MDA468. The class given is cell-based. Particulars: Breast; for IC50: MDA468, 72 hours. The protocol:
as §1, §2, §3, §4

The test system of data set [3] is MCF7. The experiment in a line: CellTiter-Glo cell viability assay, MCF7. The class given is cell-based. The note with it: Breast; for IC50: Homo sapiens, MCF7, 72 hours. The protocol: as §1, §2, §3, §4
Data set [4] has as its system AN3CA. As to the kind of experiment: CellTiter-Glo cell viability assay, AN3CA. The class given is cell-based. The note with it: Uterine; for IC50: Homo sapiens, AN3-CA, 72 hours. On the procedure:
as §1, §2, §3, §4

For data set [5], the system named is SKUT-1. The experiment in a line: CellTiter-Glo cell viability assay, SKUT-1. In kind it is cell-based. Particulars: Uterine; for IC50: Homo sapiens, SK-UT-1, SKUT-1, 72 hours. The protocol: as §1, §2, §3, §4
In data set [6] the test system is SKUT-1B. As to the kind of experiment: CellTiter-Glo cell viability assay, SKUT-1B. In kind it is cell-based. Particulars: Uterine; for IC50: Homo sapiens, Skut1B, 72 hours. The protocol:
as §1, §2, §3, §4

The test system of data set [7] is Ishikawa. The experiment in a line: CellTiter-Glo cell viability assay, Ishikawa. In kind it is cell-based. The note with it: Uterine; for IC50: Homo sapiens, 72 hours. The protocol: as §1, §2, §3, §4
The test system of data set [8] is KMS-11. The experiment in a line: CellTiter-Glo cell viability assay, KMS-11. The class given is cell-based. The note with it: Myeloma; for IC50: Homo sapiens, KMS-11, 72 hours. The protocol:
as §1, §2, §3, §4

Data set [9] deals with RAMOS. The experiment in a line: CellTiter-Glo cell viability assay, RAMOS. In kind it is cell-based. The note with it: Lymphoma; for IC50: Homo sapiens, 72 hours. On the procedure: as §1, §2, §3, §4
Data set [10] concerns JEKO. As to the kind of experiment: CellTiter-Glo cell viability assay, JEKO. In kind it is cell-based. Particulars: Lymphoma; for IC50: 72 hours. On the procedure: as §1, §2, §3, §4
Data set [11] has as its system A549. As to the kind of experiment: CellTiter-Glo cell viability assay, A549. In kind it is cell-based. Particulars: NSCLC; for IC50: Homo sapiens, A549, 72 hours. On the procedure: as §1, §2, §3, §4
The subject of data set [12] is MM1.S human myeloma cells. As to the kind of experiment: Human MM1.S xenograft model, single agent screening. The class given is in vivo, mice. The note with it: 100 mg/kg daily for 19 days, oral gavage; compared to Compound ID #2 or Compound ID #3. On the procedure:
In vivo efficacy studies of Compound ID #1, Compound ID #2, and Compound ID #3 were tested in human MM1.S xenograft model as shown in FIG. 1. […] Group 2 (G2) was treated with Compound ID #1 at 100 mg/kg daily for 19 days. Group 3 (G3) was treated with Compound ID #2 at 100 mg/kg daily for 19 days. Group 4 (G4) was treated with Compound ID #3 at 100 mg/kg daily for 19 days. Vehicle and Compound ID #1, Compound ID #2 and Compound ID #3 were administered orally via oral gavage. Body weights and tumor measurements were collected twice weekly.

Data set [13] relates to MM1.S human myeloma cells. The experiment in a line: Human MM1.S xenograft model, combination screening with pomalidomide/dexamethasone. The class given is in vivo, mice. Particulars: 100 mg/kg daily for 19 days oral plus pomalidomide 10 mg/kg / dexamethasone 0.3 mg/kg; compared to ID #2 or ID #3 combinations. The protocol: Group 3 (G3) was treated with Compound ID #1 at 100 mg/kg daily for 19 days. Group 4 (G4) was treated with Compound ID #2 at 100 mg/kg daily for 19 days. Group 5 (G5) was treated with Compound ID #3 at 100 mg/kg daily for 19 days. […] Vehicle and Compound ID #1, Compound ID #2 and Compound ID #3 were administered orally via oral gavage. Body weights and tumor measurements were collected twice weekly.
In general terms: Xenograft models place foreign cells or tissue in a host animal.

Data set [14] in a line: % PPB, rat. Particulars: plasma; rat (r). In kind it is in vitro ADME.

SMILES strings stand for the structures.

In the case of `O=C(NO)c1ccc(Nc2nc3ccccc3n2CC2CCCCC2)cc1` [ID #1, 4-((1-(cyclohexylmethyl)-1H-benzo[d]imidazol-2-yl)amino)-N-hydroxybenzamide], the “Improvement ID #1 over ID #3 Percent” value in data set [1] (MDA-157) came to 63.77%; in [2] (MDA468), 58.63%; in data set [3] (MCF7), 44.79%; in data set [4], 64.99%; in [5] (SKUT-1) it was 60.21%; in [6], 63.73%. Also, the “Improvement ID #1 over ID #3 Percent” value in data set [7] is listed as 61.10%; in data set [8] (KMS-11), 52.98%; in [9], 52.08%; in [10], 56.31%; in [11] (A549), 77.10%. Besides, the “Improvement ID #1 over ID #3 fold” value in data set [1] (MDA-157) came to 2.76 fold; in [2] (MDA468) it was 2.42 fold; in data set [3] (MCF7) it was 1.81 fold; in [4], 2.86 fold; in [5] (SKUT-1) it was 2.51 fold; in [6], 2.76 fold. The “Improvement ID #1 over ID #3 fold” value in [7] was found to be 2.57 fold; in data set [8] (KMS-11), 2.13 fold; in data set [9], 2.09 fold; in [10], 2.29 fold; in data set [11] (A549), 4.37 fold. For the same compound, the IC50 (usually the concentration needed to halve the response being measured) in data set [1] came to 2750 nM; in data set [2] it was 3860 nM; in [3] it was 1960 nM; in [4] it was 1600 nM; in data set [5], 3800 nM; in [6], 2510 nM. Also, the IC50 in data set [7] was determined as 1700 nM; in data set [8] it was 1420 nM; in data set [9], 1380 nM; in [10], 970 nM; in data set [11], 2290 nM. Besides, in data set [12], the “anticancer activity (tumor volume)” value is recorded as “significantly superior anticancer activity”. The “anticancer activity (tumor volume) when combined with pomalidomide/dexamethasone” value in [13] is recorded as “significantly superior anticancer activity”. In addition, the free fraction (fraction unbound) (usually the share of the substance not bound to proteins or other matrix) in data set [14] is 0.0017.
With `O=C(NO)c1ccc(Nc2nc3ccccc3n2C2CCCCCC2)cc1` [ID #3, 4-((1-cycloheptyl-1H-benzo[d]imidazol-2-yl)amino)-N-hydroxybenzamide], the IC50 was 7590 nM in [1]; 9330 nM in data set [2]; 3550 nM in data set [3]; 4570 nM in [4]; 9550 nM in data set [5]; 6920 nM in [6]. Further, the half-inhibitory concentration (IC50) in [7] is 4370 nM; in [8] it was 3020 nM; in data set [9], 2880 nM; in data set [10] it was 2220 nM; in data set [11], 10000 nM. The fraction unbound in data set [14] is 0.0055.
